The values below come from ChEMBL document CHEMBL1129441, “Derivatives of the triazoloquinazoline adenosine antagonist (CGS15943) are selective for the human A3 receptor subtype” (J Med Chem, 1996).

The target in experiment [1] is T1, Adenosine receptor A1 (Rattus norvegicus, UniProt P25099).
T1 sequence (P25099 whole entry): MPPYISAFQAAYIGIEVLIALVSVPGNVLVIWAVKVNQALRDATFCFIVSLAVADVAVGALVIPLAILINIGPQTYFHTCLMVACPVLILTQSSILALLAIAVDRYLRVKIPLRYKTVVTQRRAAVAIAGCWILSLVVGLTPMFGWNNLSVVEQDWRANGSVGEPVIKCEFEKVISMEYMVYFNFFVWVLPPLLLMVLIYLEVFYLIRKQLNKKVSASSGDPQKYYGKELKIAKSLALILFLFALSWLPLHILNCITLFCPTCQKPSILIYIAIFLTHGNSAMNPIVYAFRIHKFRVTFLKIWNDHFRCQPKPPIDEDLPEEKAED
Kind of experiment: Displacement of [3H]-(R)-PIA from Adenosine A1 receptor of rat cerebral cortex membranes. The class given is cell membranes, Membrane. On the technique in general: Displacement assays read how much labelled ligand stays bound in the presence of the test substance.

Experiment [2] in a line: Relative binding to rat A2A and human A3 adenosine receptors (ratio of IC50).
Experiment [3] can be described thus: Relative binding to rat A1 and human A3 adenosine receptors (ratio of IC50).
The target in experiment [4] is T2, Adenosine receptor A3 (Homo sapiens, UniProt P0DMS8).
T2 sequence (P0DMS8 whole entry): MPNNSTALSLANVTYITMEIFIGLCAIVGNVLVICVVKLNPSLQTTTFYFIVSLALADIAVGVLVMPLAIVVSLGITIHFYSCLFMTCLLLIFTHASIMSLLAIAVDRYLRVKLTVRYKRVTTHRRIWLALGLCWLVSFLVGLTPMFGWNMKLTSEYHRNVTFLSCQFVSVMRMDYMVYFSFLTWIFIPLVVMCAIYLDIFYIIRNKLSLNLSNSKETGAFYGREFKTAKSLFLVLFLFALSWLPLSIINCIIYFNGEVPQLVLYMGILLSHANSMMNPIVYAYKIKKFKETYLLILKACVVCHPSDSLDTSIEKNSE
Kind of experiment: biochemical.
Description: In vitro binding affinity at human Adenosine A3 receptor from HEK293 cells by [125I]AB-MECA displacement.

Experiment [5] has as its target T3, Adenosine receptor A2a (Rattus norvegicus, UniProt P30543). Kind of experiment: Displacement of [3H]-[…] from Adenosine A2A receptor of rat striatal membranes. Format: cell membranes, Membrane.
The target of experiment [6] is T3, Adenosine receptor A2a. The experiment can be described thus: (§1) Binding affinity for Adenosine A2A receptor from rat striatal membranes using [3H]-[…].
For experiment [7], the target named is T1, Adenosine receptor A1. The experiment can be described thus: Binding affinity for Adenosine A1 receptor from rat cerebral cortex membranes using [3H](R)-PIA. The class given is tissue-based.
Experiment [8] has as its target T1, Adenosine receptor A1. The experiment can be described thus: Binding affinity for A1 receptors from rat cerebral cortex membranes using [3H]-(R(-PIA. The class given is tissue-based.
Experiment [9] has as its target T4, Adenosine receptor A3 (Rattus norvegicus, UniProt P28647).
T4 sequence (P28647 whole entry): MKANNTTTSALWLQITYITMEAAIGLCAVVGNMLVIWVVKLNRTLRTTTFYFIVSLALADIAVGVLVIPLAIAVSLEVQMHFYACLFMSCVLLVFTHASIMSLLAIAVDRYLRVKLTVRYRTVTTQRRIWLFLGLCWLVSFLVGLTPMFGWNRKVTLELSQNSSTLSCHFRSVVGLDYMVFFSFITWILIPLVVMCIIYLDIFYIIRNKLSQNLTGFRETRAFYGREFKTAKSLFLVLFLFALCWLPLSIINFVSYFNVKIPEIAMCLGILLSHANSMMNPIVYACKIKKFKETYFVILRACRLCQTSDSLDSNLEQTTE
Description: Binding affinity for Adenosine A3 receptor from rat striatal membranes

Experiment [10] deals with T5, Adenosine receptor A1 (Rattus norvegicus) (UniProt P25099).
T5 sequence (whole entry): T1 sequence (P25099 whole entry)
The experiment can be described thus: Binding affinity for Adenosine A1 receptor from rat cerebral cortex membranes using [3H]-(R)-PIA. Format: tissue-based. Particulars: concentration not given here.

Experiment [11] has as its target Adenosine receptor A2a (Rattus norvegicus) (UniProt P30543). The description is as §1. Conditions: concentration not given here.

SMILES strings stand for the structures.

T3 sequence (P30543 whole entry): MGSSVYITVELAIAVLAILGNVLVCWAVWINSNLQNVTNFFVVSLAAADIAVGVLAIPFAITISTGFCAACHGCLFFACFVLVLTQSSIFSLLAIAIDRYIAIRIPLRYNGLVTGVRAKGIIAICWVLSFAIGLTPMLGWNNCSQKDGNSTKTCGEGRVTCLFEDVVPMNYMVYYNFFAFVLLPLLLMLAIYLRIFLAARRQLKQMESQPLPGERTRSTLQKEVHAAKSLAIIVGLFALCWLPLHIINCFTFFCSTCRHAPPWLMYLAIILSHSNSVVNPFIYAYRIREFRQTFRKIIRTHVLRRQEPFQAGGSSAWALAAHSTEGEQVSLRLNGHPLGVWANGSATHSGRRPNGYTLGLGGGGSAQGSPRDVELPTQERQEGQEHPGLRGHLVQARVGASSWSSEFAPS
Sequence of Adenosine receptor A2a (Rattus norvegicus) (P30543 whole entry): as above

Broadly, the Ki is the equilibrium dissociation constant of an inhibitor or competing ligand from its target. With `O=C(Nc1nc2ccc(Cl)cc2c2nc(-c3ccco3)nn12)c1ccccc1`, the Ki is 680 nM at Adenosine receptor A1 [1], 3.03 nM at Adenosine receptor A3 [4] and 273 nM on Adenosine receptor A2a [5]. The figures for the Ratio in experiment [2] and in experiment [3] were 90 and 220, respectively.
With `Oc1nc2ccc(Cl)cc2c2nc(-c3ccco3)nn12`, the Ki at Adenosine receptor A1 [1] is 3950 nM; at Adenosine receptor A2a [5], 4380 nM. Further, the Ratio in experiment [2] stood at 17; in [3], 15.
As usually defined, the IC50 is the concentration that gives 50% inhibition. Low readings indicate greater potency, high ones weaker potency. Regarding `Cc1ccc(-c2oc3ccc(Cl)cc3c(=O)c2Cl)c(OC(C)C)c1`, the IC50 on Adenosine receptor A2a [6] was more than 100 nM. At Adenosine receptor A1 [7], this molecule registered a Ki of more than 100000 nM.
On to `CCOC(=O)C1=C(c2ccccc2)Nc2cc(C)c(C(=O)OCC)cc2C1/C=C/c1ccccc1` (stereo not given), for which the IC50 is 4.77 nM at Adenosine receptor A2a [6] and 5.93 nM at Adenosine receptor A1 [8]. Moreover, the Ki on Adenosine receptor A3 [4] came to 0.11 nM.
Regarding `NCCCC(=O)Nc1nc2ccc(Cl)cc2c2nc(-c3ccco3)nn12`, the Ratio in experiment [2] worked out at 0.18; in experiment [3] it was 0.14. Further, the Ki on Adenosine receptor A3 [4] is 80.8 nM; on Adenosine receptor A2a [5] it was 14.4 nM.
As for `Nc1nc2ccc(Cl)cc2c2nc(-c3ccco3)nn12` [CGS-15943], the IC50 at Adenosine receptor A2a [6] amounted to 3.3 nM. The affinity at Adenosine receptor A3 [9] corresponds to a Ki of 100000 nM.
Molecule `Nc1nc2ccc(Cl)cc2c2nc(-c3ccc(Br)o3)nn12` returned an IC50 on Adenosine receptor A2a [6] of 531 nM. Also, the Ki at Adenosine receptor A3 [4] was found to be 64 nM.
As for `CC(C)(C)OC(=O)NCCCC(=O)Nc1nc2ccc(Cl)cc2c2nc(-c3ccco3)nn12`, the Ratio was 4.1 in experiment [2] and 2.8 in [3]. Further, the figures for the Ki at Adenosine receptor A3 [4] and on Adenosine receptor A2a [5] were 32.9 nM and 135 nM, respectively.
In the case of `CCCn1c(=O)n2nc(-c3ccco3)nc2c2cc(Cl)ccc21`, the values for the Ki on Adenosine receptor A1 [1], on Adenosine receptor A3 [4] and on Adenosine receptor A2a [5] were 1850 nM, 1810 nM and 6960 nM, respectively. Besides, the Ratio in [2] turned out to be 3.8; in [3] it was 1.
`O=C(Nc1nc2ccc(Cl)cc2c2nc(-c3ccco3)nn12)c1cccc(I)c1`: the figures for the Ki on Adenosine receptor A1 [1], on Adenosine receptor A3 [4] and on Adenosine receptor A2a [5] were 200 nM, 23.8 nM and 310 nM, respectively. Also, the Ratio in [2] stood at 13; in experiment [3], 8.4.
For the molecule `CCC(=O)Nc1nc2ccc(Cl)cc2c2nc(-c3ccco3)nn12`, the Ratio is 14 in experiment [2] and 40 in [3].
As usually defined, the inhibition is how much of the control response was suppressed. A higher inhibition goes with a response far below the control. Turning to `O=C(Nc1nc2ccc(Cl)cc2c2nc(-c3ccc(Br)o3)nn12)c1ccccc1`, the inhibition in experiment [10] and in [11] was less than 10% in each case.
For `CCCC(=O)Nc1nc2ccc(Cl)cc2c2nc(-c3ccco3)nn12`, the Ratio in experiment [2] came to 2.6; in experiment [3], 2.2. At Adenosine receptor A2a [5], this molecule displayed a Ki of 37.6 nM.
In turn, `CC(=O)Nc1nc2ccc(Cl)cc2c2nc(-c3ccco3)nn12` gave a Ki on Adenosine receptor A2a [5] of 36.3 nM.
For the molecule `CC(C)(C)C(=O)Nc1nc2ccc(Cl)cc2c2nc(-c3ccco3)nn12`, the Ratio in experiment [2] was found to be 0.36; in [3], 0.84. The affinity at Adenosine receptor A2a [5], expressed as Ki, was 88.8 nM.
For `CCCCC(=O)Nc1nc2ccc(Cl)cc2c2nc(-c3ccco3)nn12` the same measures were 2.3, 1.3 and 48.8 nM.
